Experimental data from paper PMC6522510 (Nature Communications, 2019).
Where a name gives a salt, the structure may show the parent alone. Read-outs that look alike come from different tables or passages of the source.

Columns and labels:
Set-up in all cases: species or system AML cell lines (8); Primary HTS, single concentration about 10 uM, Cell Titer Glo viability; log10 luminescence, per cent inhibition relative to cycloheximide control
Conditions in all cases: 72 h, relative to cycloheximide control, log10 luminescence, inhibitor
CHRF288-11 = test system: CHRF288-11
CMK = test system: CMK
CMS = test system: CMS
M07e = test system: M07e
ML-2 = test system: ML-2
MOLM-13 = test system: MOLM-13
MV4-11 = test system: MV4-11
U937 = test system: U937

SMILES	CHRF288-11 %inh (CHRF288-11; CHRF288-11 %inh, 10 µM) [%]	CMK %inh (CMK; CMK %inh, 10 µM) [%]	CMS %inh (CMS; CMS %inh, 10 µM) [%]	M07e %inh (M07e; M07e %inh, 10 µM) [%]	ML-2 %inh (ML-2; ML-2 %inh, 10 µM) [%]	MOLM-13 %inh (MOLM-13; MOLM-13 %inh, 10 µM) [%]	MV4-11 %inh (MV4-11; MV4-11 %inh, 10 µM) [%]	U937 %inh (U937; U937 %inh, 10 µM) [%]	CHRF288-11 %inh (CHRF288-11) [%]	CMK %inh (CMK) [%]	CMS %inh (CMS) [%]	M07e %inh (M07e) [%]	ML-2 %inh (ML-2) [%]	MOLM-13 %inh (MOLM-13) [%]	MV4-11 %inh (MV4-11) [%]	U937 %inh (U937) [%]
OC[C@H]1O[C@@H](O[C@@H]2[C@@H](CO)OC(O)(CO)[C@H]2O)[C@H](O)[C@@H](O)[C@H]1O (mixture of isomers) [SJ000285579-3, LACTULOSE]	0.1599	-4.096	-1.064	2.568	-0.1648	2.867	0.8098	-0.7505	–	–	–	–	–	–	–	–
OC[C@H]1O[C@@H](O[C@@H]2[C@@H](CO)OC(O)(CO)[C@H]2O)[C@H](O)[C@@H](O)[C@H]1O (mixture of isomers) [SJ000285579-4, LACTULOSE]	2.769	0.6173	-0.8505	8.809	-0.9858	5.87	2.037	1.171	–	–	–	–	–	–	–	–
NC[C@H](CC(=O)O)c1ccc(Cl)cc1 (racemic) [SJ000285686-7, BACLOFEN | (R,S)-BACLOFEN | (±)-BACLOFEN | LIORESAL]	–	–	–	–	–	–	–	–	-1.195	21.33	7.511	-0.3712	2.059	8.873	2.346	5.766
CCOC(=O)C1=C(C)NC(C)=C(C(=O)OC)C1c1cccc(Cl)c1Cl (single isomer, unassigned) [SJ000287293-6, FELODIPINE]	40.78	32.28	3.783	5.04	0.03711	23.61	5.092	12.66	–	–	–	–	–	–	–	–
CCOC(=O)C1=C(C)NC(C)=C(C(=O)OC)C1c1cccc(Cl)c1Cl (single isomer, unassigned) [SJ000287293-7, FELODIPINE]	33.72	36.03	-2.469	7.937	2.538	16.76	12.83	12.4	–	–	–	–	–	–	–	–
C[C@]12CC[C@@H]3c4ccc(O)cc4C[C@@H](CCCCCCCCC[S+]([O-])CCCC(F)(F)C(F)(F)F)[C@H]3[C@@H]1CC[C@@H]2O (single isomer, unassigned) [SJ000288293-3, FULVESTRANT | FULVESTRANT| FASLODEX | FASLODEX (ICI 182,780)]	4.612	-2.659	2.454	3.741	2.01	-2.461	13.25	-0.5617	–	–	–	–	–	–	–	–
C[C@]12CC[C@@H]3c4ccc(O)cc4C[C@@H](CCCCCCCCC[S+]([O-])CCCC(F)(F)C(F)(F)F)[C@H]3[C@@H]1CC[C@@H]2O (single isomer, unassigned) [SJ000288293-4, FULVESTRANT | FULVESTRANT| FASLODEX | FASLODEX (ICI 182,780)]	-3.752	-2.475	2.909	2.696	1.626	-1.784	6.552	-1.083	–	–	–	–	–	–	–	–
O=[N+]([O-])c1ccc(Oc2ccc(Br)cc2)c(C(O)P(=O)(O)O)c1 (single isomer, unassigned) [SJ000312207-2, RWJ-60475]	1.479	0.9236	0.5647	-2.334	0.244	9.917	4.34	1.53	–	–	–	–	–	–	–	–
O=[N+]([O-])c1ccc(Oc2ccc(Br)cc2)c(C(O)P(=O)(O)O)c1 (single isomer, unassigned) [SJ000312207-3, RWJ-60475]	-1.978	2.859	-0.822	1.458	4.625	10.73	2.215	3.171	–	–	–	–	–	–	–	–
Clc1ccc(C(Cn2ccnc2)OCc2ccsc2Cl)c(Cl)c1 (single isomer, unassigned) [SJ000556739-1, TIOCONAZOLE]	35.73	41.48	7.938	14.34	9.708	23.12	16.99	20.14	–	–	–	–	–	–	–	–
Clc1ccc(C(Cn2ccnc2)OCc2ccsc2Cl)c(Cl)c1 (single isomer, unassigned) [SJ000556739-2, TIOCONAZOLE]	62.31	43.08	5.318	7.997	3.315	22.63	16.77	5.367	–	–	–	–	–	–	–	–
Cc1cc(NS(=O)(=O)c2ccc(N)cc2)no1 [SJ000285603-4, SULFAMETHOXAZOLE]	–	–	–	–	–	–	–	–	6.539	-0.9998	-0.6486	0.538	–	-2.87	0.1304	-2.098
CC(=O)N(O)CCCCCNC(=O)CCC(=O)N(O)CCCCCNC(=O)CCC(=O)N(O)CCCCCN [SJ000285725-4, DEFEROXAMINE MESYLATE]	11.08	–	42.04	6.608	7.19	17.22	2.029	–	–	16.85	–	–	–	–	–	–
C[C@H]1O[C@@H](O[C@H]2[C@@H](O)C[C@H](O[C@H]3[C@@H](O)C[C@H](O[C@H]4CC[C@@]5(C)[C@H](CC[C@@H]6[C@@H]5C[C@@H](O)[C@]5(C)[C@@H](C7=CC(=O)OC7)CC[C@]65O)C4)O[C@@H]3C)O[C@@H]2C)C[C@H](O)[C@@H]1O [SJ000285739-7, DIGOXIN]	112.6	–	94.04	–	58.17	85.14	73.33	-15.97	–	–	–	–	–	–	–	–
Cc1cnc(C(=O)NCCc2ccc(S(=O)(=O)NC(=O)NC3CCCCC3)cc2)cn1 [SJ000287188-5, GLIPIZIDE]	–	–	–	–	–	–	–	–	-3.512	3.258	1.05	3.86	–	17.27	-0.3606	0.1954
C[N+]1(C)CCC(OC(=O)C(O)(c2ccccc2)C2CCCC2)C1 (stereo not drawn) [SJ000287387-2, GLYCOPYRROLATE]	–	–	–	–	–	–	–	–	7.948	-4.149	-3.738	3.68	–	6.707	0.8412	2.372
CN(CCOc1ccc(NS(C)(=O)=O)cc1)CCc1ccc(NS(C)(=O)=O)cc1 [SJ000555707-1, DOFETILIDE]	–	–	–	–	–	–	–	–	-0.9409	10.12	–	3.914	3.818	10.35	4.51	5.896
